Experimental data as given in patent EP0051773A1, “Penicillins, their salts, process for their preparation and pharmaceutical compositions containing them” (Dr. Karl Thomae GmbH, priority 1980, dated 1982).
≈ marks a conversion by molar mass, not a printed value.

Columns and labels:
E.coli ATCC 11 775 = assay: experimental intraperitoneal infection in mice, ED50 (survival); format: in vivo, Mäuse; details: Escherichia coli, ATCC 11 / ATCC 1175, sc, 168 h; female NMRI mice, i.p. infection, s.c. application, treated once, 7 days observation
Procedure: (§1) Eine Reihe der erfindungsgemäßen Verbindungen wurde in vivo bei experimentellen Infektionen an Mäusen untersucht. Man verwendete als pathogene Bakterien E.coli ATCC 11 775 und Pseudomonas aeruginosa Walter. Es wurde eine intraperitoneale Infektion mit 0,2 ml einer 5%igen Mucinsuspension der Bakterien gesetzt. Dies entspricht etwa 2x10^6 Keime E.coli bzw. 8x10^5 Keime Pseudomonas/Maus. Weibliche Mäuse vom Stamm NMRI wurden in Gruppen von jeweils 10 Tieren aufgeteilt, zwei Gruppen blieben unbehandelt, die restlichen Gruppen wurden mit verschiedenen Dosen der jeweiligen erfindungsgemäßen Penicilline zur Bestimmung der ED50 (Dosis, bei der 50 % der Tiere überleben) behandelt. Bei der E.coli-Infektion wurde einmal therapiert. Bei der Pseudomonas-Infektion wurde dreimal behandelt.
(§2) Der Beobachtungszeitraum betrug in beiden Fällen 7 Tage. Die Ergebnisse dieser Teste mit repräsentativen Vertretern der erfindungsgemäßen Penicilline sind in der Tabelle 3 dargestellt.

[1] = test system: Pseudomonas aeruginosa Walter; assay: as above; format: in vivo, Mäuse; details: sc, 168 h, female NMRI mice, i.p. infection, s.c. application, treated three times, 7 days observation, read-out: ED50 Pseud. aerug. Walter
Procedure: as §1, §2

[2] = test system: Enterobacter cloacae ATCC 13 047; assay: serial dilution test in microtiter system (bacteriostasis, MIC); format: cell-based; details: ATCC13, liquid medium, 18 to 20 h at 37°C, read-out: MHK-Werte Eb. cloacae 13 047
Procedure: (§3) Für die Untersuchungen wurde die Methode des Reihenverdünnungstestes im Mikrotitersystem angewandt. Die Prüfung der Substanzen auf Bakteriostase erfolgte in flüssigem Medium. Es wurde die Bakteriostasewirkung bei folgenden Konzentrationen untersucht.
(§4) Es wurde ein Nährboden folgender Zusammensetzung benutzt: 10 g Pepton, 8 g Fleischextrakt-Oxoid, 3 g Natriumschlorid, 2 g sek. Natriumphosphat werden mit dest. Wasser auf 1000 ml aufgefüllt (pH 7,2-7,4). Lediglich bei der Testung gegen Streptokokken wurde 1% Glucose hinzugefügt. Das Alter der Primärkulturen betrug etwa 20 Stunden. Die Einstellung der Keimsuspension erfolgte am Photometer (nach "Eppendorf") (Reagenzglas-Durchmesser 14 mm, Filter 546 nm) anhand der Trübung einer Bariumsulfat-Vergleichssuspension, die durch eine Bariumsulfat-Aufschwemmung erzeugt wurde, welche durch die Zugabe von 3,0 ml 1%ige Bariumchloridlösung in 97 ml 1%ige Schwefelsäure entstand. Nach der Einstellung wurden Streptococcus Aronson im Verhältnis 1:15 und die übrigen Testkeime im Verhältnis 1:1500 mit einer Kochsalzlösung weiter verdünnt.
(§5) 16 mg der jeweiligen Substanz wurden in 10 ml-Meßkolben eingewogen und mit dem Lösungsmittel bis zur Marke aufgefüllt. Die weitere Verdünnungsreihe wurde mit destilliertem Wasser oder dem jeweiligen Lösungsmittel hergestellt.
(§6) Die Vertiefungen der Mikrotiterplatten wurden mit 0,2 ml Nährmedium, 0,01 ml der entsprechenden Substanzverdünnung und mit einem Tropfen Keimsuspension (0,01 ml) beschickt und 18 bis 20 Stunden bei 37°C bebrütet. Eine Lösungsmittelkontrolle wurde stets mitgeführt.
(§7) Die Ablesung wurde makroskopisch vorgenommen, wobei die jeweilige Grenkonzentration (= niedrigste noch bakteriostatisch wirksame Konzentration) ermittelt wurde.
(§8) Als Testorganismen wurden benützt: - Staphylococcus aureus SG 511, Escherichia coli ATCC 11 775, Pseudomonas aeruginosa Hamburgensis und Walter, Serratia marcescens ATCC 13 880, Klebsiella pneumoniae ATCC 10 031 und BC 6, Proteus mirabilis Hamburgensis, Proteus rettgeri BC 7 und Enterobacter cloacae ATCC 13 047.
(§9) In der folgenden Tabelle 2 sind die ermittelten minimalen Hemmkonzentrationen (MIC) für typische Vertreter der erfindungsgemäßen Verbindungen aufgeführt, wobei sich die Ziffern auf die Penicilline der Tabelle 1 Seite 18 beziehen.

[3] = test system: Klebsiella pneumoniae ATCC 10 031; assay: as above; format: cell-based; details: ATCC10, liquid medium, 18 to 20 h at 37°C, read-out: MHK-Werte Kl. pneum. ATCC 10 031
Procedure: as §3, §4, §5, §6, §7, §8, §9

[4] = test system: Pseudomonas aeruginosa Walter; assay: as above; format: cell-based; details: liquid medium, 18 to 20 h at 37°C, read-out: MHK-Werte Pseud. aerug. Walter
Procedure: as §3, §4, §5, §6, §7, §8, §9

[5] = test system: Pseudomonas aeruginosa Hamburgensis; assay: as above; format: cell-based; details: liquid medium, 18 to 20 h at 37°C, read-out: MHK-Werte Pseud. aerug. Hbg.
Procedure: as §3, §4, §5, §6, §7, §8, §9

[6] = test system: Escherichia coli ATCC 11 775; assay: as above; format: cell-based; details: ATCC11, liquid medium, 18 to 20 h at 37°C, read-out: MHK-Werte E.coli ATCC 11 755
Procedure: as §3, §4, §5, §6, §7, §8, §9

[7] = test system: Serratia marcescens ATCC 13 880; assay: as above; format: cell-based; details: ATCC13, liquid medium, 18 to 20 h at 37°C, read-out: MHK-Werte Serr. marcesc. ATCC 13 880
Procedure: as §3, §4, §5, §6, §7, §8, §9

Proteus rettgeri BC 7 = assay: as above; format: cell-based; details: Providencia rettgeri, BC7; liquid medium, 18 to 20 h at 37°C; read-out: MHK-Werte Prot. rettg. BC 7
Procedure: as §3, §4, §5, §6, §7, §8, §9

[8] = test system: Staphylococcus aureus SG 511; assay: as above; format: cell-based; details: SG511, liquid medium, 18 to 20 h at 37°C, read-out: MHK-Werte Staph. aureus SG 511
Procedure: as §3, §4, §5, §6, §7, §8, §9

[9] = test system: Klebsiella pneumoniae BC 6; assay: as above; format: cell-based; details: BC6, liquid medium, 18 to 20 h at 37°C, read-out: MHK-Werte Kl. pneum. BC 6
Procedure: as §3, §4, §5, §6, §7, §8, §9

[10] = test system: Proteus mirabilis Hamburgensis; assay: as above; format: cell-based; details: liquid medium, 18 to 20 h at 37°C, read-out: MHK-Werte Prot. mir. Hbg.
Procedure: as §3, §4, §5, §6, §7, §8, §9

Compound | MIC [2] [µg/mL] | MIC [3] [µg/mL] | MIC [4] [µg/mL] | MIC [5] [µg/mL] | MIC [6] [µg/mL] | MIC [7] [µg/mL] | MIC (Proteus rettgeri BC 7) [µg/mL] | MIC [8] [µg/mL] | MIC [9] [µg/mL] | MIC [10] [µg/mL] | ED50 (E.coli ATCC 11 775) [mg/kg] | ED50 [1] [mg/kg]
CC1(C)S[C@@H]2[C@H](NC(=O)[C@H](NC(=O)Nc3cnc(Nc4ccc(S(N)(=O)=O)cc4)nc3O)c3ccccc3)C(=O)N2[C@H]1C(=O)O [Verbindung 1, D-α-[3-(2-p-Aminosulfonylanilino-4-hydroxy-5-pyrimidinyl)-ureido]-benzylpenicillin-Natrium] | 0.5 (≈ 0.761 µM) | 0.5 (≈ 0.761 µM) | 1 (≈ 1.52 µM) | 1 (≈ 1.52 µM) | 0.12 (≈ 0.183 µM) | 0.12 (≈ 0.183 µM) | 0.25 (≈ 0.381 µM) | 0.12 (≈ 0.183 µM) | 0.5 (≈ 0.761 µM) | < 0.03 | 3.9 | 8.2
CC1(C)SC2C(NC(=O)C(NC(=O)Nc3cnc(Nc4ccc(S(C)(=O)=O)cc4)nc3O)c3ccccc3)C(=O)N2C1C(=O)O (stereo not drawn) [Verbindung 24] | 2 (≈ 3.05 µM) | 0.5 (≈ 0.763 µM) | 2 (≈ 3.05 µM) | 1 (≈ 1.53 µM) | 0.12 (≈ 0.183 µM) | 0.12 (≈ 0.183 µM) | 0.12 (≈ 0.183 µM) | 0.25 (≈ 0.381 µM) | 0.5 (≈ 0.763 µM) | 0.06 (≈ 0.0915 µM) | 4.7 | 7.5
CCN1CCN(C(=O)N[C@@H](C(=O)N[C@@H]2C(=O)N3[C@@H]2SC(C)(C)[C@@H]3C(=O)O)c2ccccc2)C(=O)C1=O [D, Piperacillin, reference compound] | 4 (≈ 7.73 µM) | 4 (≈ 7.73 µM) | 8 (≈ 15.5 µM) | 4 (≈ 7.73 µM) | 2 (≈ 3.86 µM) | 0.5 (≈ 0.966 µM) | 0.5 (≈ 0.966 µM) | 0.25 (≈ 0.483 µM) | 8 (≈ 15.5 µM) | 0.25 (≈ 0.483 µM) | 89 | 186

Continued, in another order:

MIC [2] [µg/mL] | MIC [3] [µg/mL] | MIC [4] [µg/mL] | MIC [5] [µg/mL] | MIC [6] [µg/mL] | MIC [7] [µg/mL] | MIC (Proteus rettgeri BC 7) [µg/mL] | MIC [8] [µg/mL] | MIC [9] [µg/mL] | MIC [10] [µg/mL] | Compound | ED50 (E.coli ATCC 11 775) [mg/kg] | ED50 [1] [mg/kg]
1 (≈ 1.54 µM) | 2 (≈ 3.07 µM) | 1 (≈ 1.54 µM) | 1 (≈ 1.54 µM) | 0.25 (≈ 0.384 µM) | 0.25 (≈ 0.384 µM) | 0.5 (≈ 0.768 µM) | 0.5 (≈ 0.768 µM) | 2 (≈ 3.07 µM) | 0.06 (≈ 0.0922 µM) | CNC(=O)c1ccc(Nc2ncc(NC(=O)NC(C(=O)NC3C(=O)N4C3SC(C)(C)C4C(=O)O)c3ccc(O)cc3)c(O)n2)cc1 (stereo not drawn) [Verbindung 37] | 2.8 | 8
4 (≈ 5.97 µM) | 4 (≈ 5.97 µM) | 2 (≈ 2.99 µM) | 2 (≈ 2.99 µM) | 0.5 (≈ 0.747 µM) | 1 (≈ 1.49 µM) | 1 (≈ 1.49 µM) | 0.5 (≈ 0.747 µM) | 8 (≈ 11.9 µM) | 0.12 (≈ 0.179 µM) | C[S+]([O-])c1ccc(CNc2ncc(NC(=O)NC(C(=O)N[C@@H]3C(=O)N4[C@@H]3SC(C)(C)[C@@H]4C(=O)O)c3ccc(O)cc3)c(O)n2)cc1 (stereo partly drawn) [Verbindung 62] | 5.9 | 18.3
